Assays:
[1] = target: T1, PRKCI (PKC iota) (Homo sapiens, UniProt P41743); experiment: Kinase screening service: PRKCI; assay type: biochemical; settings: average of duplicates
T1 construct: purchased Life Technologies Corporation (Kinase Screening Service)
Description: (§1) The inhibitory effect of PT109 on other kinases including SGK and JNK was detected by the Kinase Screening Service of Life Technologies Corporation (The concentration of compound 9 was 10 μM, measurements were performed in duplicates, and the value was represented by an average) to investigate the selectivity of the compound for JNK and SGK1.

[2] = target: T2, SLK (Homo sapiens, UniProt Q9H2G2); experiment: Kinase screening service: SLK; assay type: biochemical; settings: average of duplicates
T2 construct: purchased Life Technologies Corporation (Kinase Screening Service)
Description: as §1

[3] = target: T3, CSNK1E (CK1 epsilon) (Homo sapiens, UniProt P49674); experiment: Kinase screening service: CSNK1E; assay type: biochemical; settings: average of duplicates
T3 construct: purchased Life Technologies Corporation (Kinase Screening Service)
Description: as §1

[4] = target: T4, NEK4 (Homo sapiens, UniProt P51957); experiment: Kinase screening service: NEK4; assay type: biochemical; settings: average of duplicates
T4 construct: purchased Life Technologies Corporation (Kinase Screening Service)
T4 sequence (P51957 whole entry): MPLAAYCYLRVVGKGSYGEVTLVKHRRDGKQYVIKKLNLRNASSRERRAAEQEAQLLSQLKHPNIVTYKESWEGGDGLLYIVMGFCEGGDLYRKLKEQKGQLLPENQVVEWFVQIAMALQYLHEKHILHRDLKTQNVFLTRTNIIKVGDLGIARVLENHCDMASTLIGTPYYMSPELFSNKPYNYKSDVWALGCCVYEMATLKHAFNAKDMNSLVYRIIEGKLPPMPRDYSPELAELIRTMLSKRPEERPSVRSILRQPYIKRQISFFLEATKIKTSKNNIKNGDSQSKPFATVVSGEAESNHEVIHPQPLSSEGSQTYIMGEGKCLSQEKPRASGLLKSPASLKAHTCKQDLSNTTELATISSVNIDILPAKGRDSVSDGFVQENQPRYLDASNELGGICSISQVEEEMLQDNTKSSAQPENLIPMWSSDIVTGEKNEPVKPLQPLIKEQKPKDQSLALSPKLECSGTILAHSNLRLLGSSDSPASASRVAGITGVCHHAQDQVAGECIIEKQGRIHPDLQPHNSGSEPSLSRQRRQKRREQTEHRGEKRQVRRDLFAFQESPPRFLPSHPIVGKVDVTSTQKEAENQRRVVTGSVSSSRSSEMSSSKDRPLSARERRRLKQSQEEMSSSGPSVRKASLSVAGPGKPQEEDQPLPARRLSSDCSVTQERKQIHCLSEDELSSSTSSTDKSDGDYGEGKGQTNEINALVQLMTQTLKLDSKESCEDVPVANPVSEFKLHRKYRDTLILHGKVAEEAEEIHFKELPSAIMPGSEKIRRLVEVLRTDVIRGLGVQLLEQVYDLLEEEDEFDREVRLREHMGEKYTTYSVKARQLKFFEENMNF
Description: as §1

[5] = test system: SGK (SGK1); experiment: Kinase screening service (Life Technologies): SGK1; assay type: biochemical; settings: SGK1 versus SGK2 and SGK3
Description: (§2) The inhibitory effect of PT109 on SGK and INK was detected by the kinase screening commercialization service of Life Technologies Corporation.
as §1

[6] = target: T5, MKNK2 (MNK2) (Homo sapiens, UniProt Q9HBH9); experiment: Kinase screening service: MKNK2; assay type: biochemical; settings: average of duplicates
T5 construct: purchased Life Technologies Corporation (Kinase Screening Service)
Description: as §1

[7] = target: T6, ULK2 (Homo sapiens, UniProt Q8IYT8); experiment: Kinase screening service: ULK2; assay type: biochemical; settings: average of duplicates
T6 construct: purchased Life Technologies Corporation (Kinase Screening Service)
Description: as §1

[8] = In vitro blood-brain barrier permeability (PBL artificial membrane); assay type: in vitro ADME
Description: 1) 4 μL of 2% PBL solution was added to the hydrophobic membrane of a MAIPn 4550 96-well plate. During the dripping process, it should be noted that the pipette tip should not touch the surface of the membrane to avoid the damage to the membrane structure.
2) 200 μL of the test sample solution (0.1 mg/ml) was quickly (within 10 min) and quantitatively pipetted, and added to the upside of the membrane of the 96-well plate as a donor compartment. 200 μL of PBS (pH=7.4) was added to the other side of the membrane as an acceptor compartment. It should be noted that the acceptor solution should keep being in full contact with the membrane.
3) The donor compartment was carefully removed upon standing for 120 min at room temperature, and the absorbance of the compound (250-500 nm) in the acceptor compartment was tested by UV spectrometer.
4) 100 μL of the test sample solution was fully mixed with 100 μL of PBS, and the mixture was used as a theoretical equilibrium solution. Its absorbance (250-500 nm) was measured and tested with an acceptor plate.
5) The log Pe value was calculated by the following equation: […]
wherein Vd is the volume of the donor compartment, Va is the volume of the acceptor compartment, A is the membrane area, t is the penetration time, [drug]acceptor is the absorbance of the acceptor compartment, and [drug]equilibrium is the absorbance of theoretical equilibrium. […]

[9] = target: T7, TBK1 (Homo sapiens, UniProt Q9UHD2); experiment: Kinase screening service: TBK1; assay type: biochemical; settings: average of duplicates
T7 construct: purchased Life Technologies Corporation (Kinase Screening Service)
Description: as §1

[10] = target: T8, STK22D (TSSK1) (Homo sapiens, UniProt Q9BXA7); experiment: Kinase screening service: STK22D; assay type: biochemical; settings: average of duplicates
T8 construct: purchased Life Technologies Corporation (Kinase Screening Service)
T8 sequence (Q9BXA7 whole entry): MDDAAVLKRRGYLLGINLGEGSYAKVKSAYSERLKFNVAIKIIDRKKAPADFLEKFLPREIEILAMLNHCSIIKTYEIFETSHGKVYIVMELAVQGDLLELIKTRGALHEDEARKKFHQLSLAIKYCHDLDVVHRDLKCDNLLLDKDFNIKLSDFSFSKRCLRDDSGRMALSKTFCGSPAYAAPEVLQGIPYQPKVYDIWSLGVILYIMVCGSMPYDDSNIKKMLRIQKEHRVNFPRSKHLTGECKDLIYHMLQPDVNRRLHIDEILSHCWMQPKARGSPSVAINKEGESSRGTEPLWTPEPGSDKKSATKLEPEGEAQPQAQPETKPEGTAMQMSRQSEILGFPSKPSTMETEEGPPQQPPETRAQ
Description: as §1

[11] = target: T9, PTK6 (Brk) (Homo sapiens, UniProt Q13882); experiment: Kinase screening service: PTK6; assay type: biochemical; settings: average of duplicates
T9 construct: purchased Life Technologies Corporation (Kinase Screening Service)
Description: as §1

[12] = target: T10, PDGFRB (PDGFR beta) (Homo sapiens, UniProt P09619); experiment: Kinase screening service: PDGFRB; assay type: biochemical; settings: average of duplicates
T10 construct: purchased Life Technologies Corporation (Kinase Screening Service)
Description: as §1

[13] = target: T11, PRKCA (PKC alpha) (Homo sapiens, UniProt P17252); experiment: Kinase screening service: PRKCA; assay type: biochemical; settings: average of duplicates
T11 construct: purchased Life Technologies Corporation (Kinase Screening Service)
Description: as §1

[14] = target: T12, NTRK3 (TRKC) (Homo sapiens, UniProt Q16288); experiment: Kinase screening service: NTRK3; assay type: biochemical; settings: average of duplicates
T12 construct: purchased Life Technologies Corporation (Kinase Screening Service)
T12 sequence (Q16288 32-839): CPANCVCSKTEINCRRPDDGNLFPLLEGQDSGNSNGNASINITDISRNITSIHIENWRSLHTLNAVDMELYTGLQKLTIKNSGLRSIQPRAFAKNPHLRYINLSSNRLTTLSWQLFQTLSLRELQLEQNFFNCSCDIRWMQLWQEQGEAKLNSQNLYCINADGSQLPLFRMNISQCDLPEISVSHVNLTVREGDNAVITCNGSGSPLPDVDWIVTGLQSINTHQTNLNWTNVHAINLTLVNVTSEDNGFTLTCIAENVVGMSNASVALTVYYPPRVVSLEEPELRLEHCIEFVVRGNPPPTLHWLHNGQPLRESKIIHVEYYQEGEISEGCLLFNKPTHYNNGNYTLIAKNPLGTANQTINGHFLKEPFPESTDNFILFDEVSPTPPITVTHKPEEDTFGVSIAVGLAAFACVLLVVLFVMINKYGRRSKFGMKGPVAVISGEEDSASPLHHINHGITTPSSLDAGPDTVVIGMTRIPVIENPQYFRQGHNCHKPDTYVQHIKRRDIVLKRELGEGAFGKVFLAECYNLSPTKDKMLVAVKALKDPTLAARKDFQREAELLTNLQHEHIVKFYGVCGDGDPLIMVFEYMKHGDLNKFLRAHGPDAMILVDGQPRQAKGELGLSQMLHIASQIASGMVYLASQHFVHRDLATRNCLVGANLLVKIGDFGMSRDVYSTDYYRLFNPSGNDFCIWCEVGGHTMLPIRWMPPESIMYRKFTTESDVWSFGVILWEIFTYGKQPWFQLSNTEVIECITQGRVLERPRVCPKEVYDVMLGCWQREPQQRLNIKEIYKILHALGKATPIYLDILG
Description: as §1

[15] = target: T13, CDK5/p35 (Homo sapiens, UniProt Q00535); experiment: Kinase screening service: CDK5/p35; assay type: biochemical; settings: average of duplicates
T13 construct: purchased Life Technologies Corporation (Kinase Screening Service)
T13 sequence (Q00535 whole entry): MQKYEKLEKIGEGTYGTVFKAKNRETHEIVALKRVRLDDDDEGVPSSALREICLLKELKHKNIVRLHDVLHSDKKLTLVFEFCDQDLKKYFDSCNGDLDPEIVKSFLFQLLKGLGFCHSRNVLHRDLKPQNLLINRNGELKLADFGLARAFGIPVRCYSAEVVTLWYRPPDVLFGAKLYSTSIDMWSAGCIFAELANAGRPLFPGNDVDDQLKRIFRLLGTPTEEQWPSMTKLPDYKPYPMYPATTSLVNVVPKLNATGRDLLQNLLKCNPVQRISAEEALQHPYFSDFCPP
T13 sequence (Q15078 whole entry partner): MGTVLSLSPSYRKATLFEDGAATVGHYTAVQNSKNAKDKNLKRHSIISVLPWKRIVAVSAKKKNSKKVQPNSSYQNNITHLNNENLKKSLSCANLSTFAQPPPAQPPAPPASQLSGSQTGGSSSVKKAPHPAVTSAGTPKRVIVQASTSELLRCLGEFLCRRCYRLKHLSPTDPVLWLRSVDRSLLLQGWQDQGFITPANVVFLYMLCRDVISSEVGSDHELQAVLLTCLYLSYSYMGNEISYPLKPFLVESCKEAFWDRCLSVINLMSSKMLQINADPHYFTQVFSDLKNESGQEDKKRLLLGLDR
Description: as §1

[16] = test system: other kinases including SGK and JNK; experiment: Kinase selectivity of PT109 (whole panel); assay type: biochemical; settings: 10 μM, kinase panel of Table 2
Description: as §1

[17] = target: T14, CSNK2A2 (CK2 alpha 2) (Homo sapiens, UniProt P19784); experiment: Kinase screening service: CSNK2A2; assay type: biochemical; settings: average of duplicates
T14 construct: purchased Life Technologies Corporation (Kinase Screening Service)
Description: as §1

[18] = target: T15, GSK3B (GSK3 beta) (Homo sapiens, UniProt P49841); experiment: Kinase screening service: GSK3B; assay type: biochemical; settings: average of duplicates
T15 construct: purchased Life Technologies Corporation (Kinase Screening Service)
Description: as §1

[19] = target: T16, FGFR4 (Homo sapiens, UniProt P22455); experiment: Kinase screening service: FGFR4; assay type: biochemical; settings: average of duplicates
T16 construct: purchased Life Technologies Corporation (Kinase Screening Service)
Description: as §1

[20] = target: T17, PDK1 (Homo sapiens, UniProt O15530); experiment: Kinase screening service: PDK1; assay type: biochemical; settings: average of duplicates
T17 construct: purchased Life Technologies Corporation (Kinase Screening Service)
Description: as §1

[21] = target: T18, EGFR (ErbB1) (Homo sapiens, UniProt P00533); experiment: Kinase screening service: EGFR; assay type: biochemical; settings: average of duplicates
T18 construct: purchased Life Technologies Corporation (Kinase Screening Service)
Description: as §1

[22] = target: T19, CSNK1A1 (CK1 alpha 1) (Homo sapiens, UniProt P48729); experiment: Kinase screening service: CSNK1A1; assay type: biochemical; settings: average of duplicates
T19 construct: purchased Life Technologies Corporation (Kinase Screening Service)
T19 sequence (P48729 whole entry): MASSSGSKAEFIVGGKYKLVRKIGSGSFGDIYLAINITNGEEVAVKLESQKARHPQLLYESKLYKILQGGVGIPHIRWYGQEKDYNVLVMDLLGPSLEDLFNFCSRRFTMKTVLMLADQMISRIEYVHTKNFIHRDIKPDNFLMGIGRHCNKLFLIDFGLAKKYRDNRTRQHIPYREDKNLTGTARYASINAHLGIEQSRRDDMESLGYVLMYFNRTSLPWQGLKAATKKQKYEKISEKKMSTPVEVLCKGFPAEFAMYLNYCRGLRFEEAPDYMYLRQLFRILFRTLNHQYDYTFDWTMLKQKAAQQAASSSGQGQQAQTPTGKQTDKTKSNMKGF
Description: as §1

[23] = target: T20, PI4KB (PI4K beta) (Homo sapiens, UniProt Q9UBF8); experiment: Kinase screening service: PI4KB; assay type: biochemical; settings: average of duplicates
T20 construct: purchased Life Technologies Corporation (Kinase Screening Service)
Description: as §1

[24] = target: T21, PRKCB1 (PKC beta I) (Homo sapiens, UniProt P05771); experiment: Kinase screening service: PRKCB1; assay type: biochemical; settings: average of duplicates
T21 construct: purchased Life Technologies Corporation (Kinase Screening Service)
T21 sequence (P05771 whole entry): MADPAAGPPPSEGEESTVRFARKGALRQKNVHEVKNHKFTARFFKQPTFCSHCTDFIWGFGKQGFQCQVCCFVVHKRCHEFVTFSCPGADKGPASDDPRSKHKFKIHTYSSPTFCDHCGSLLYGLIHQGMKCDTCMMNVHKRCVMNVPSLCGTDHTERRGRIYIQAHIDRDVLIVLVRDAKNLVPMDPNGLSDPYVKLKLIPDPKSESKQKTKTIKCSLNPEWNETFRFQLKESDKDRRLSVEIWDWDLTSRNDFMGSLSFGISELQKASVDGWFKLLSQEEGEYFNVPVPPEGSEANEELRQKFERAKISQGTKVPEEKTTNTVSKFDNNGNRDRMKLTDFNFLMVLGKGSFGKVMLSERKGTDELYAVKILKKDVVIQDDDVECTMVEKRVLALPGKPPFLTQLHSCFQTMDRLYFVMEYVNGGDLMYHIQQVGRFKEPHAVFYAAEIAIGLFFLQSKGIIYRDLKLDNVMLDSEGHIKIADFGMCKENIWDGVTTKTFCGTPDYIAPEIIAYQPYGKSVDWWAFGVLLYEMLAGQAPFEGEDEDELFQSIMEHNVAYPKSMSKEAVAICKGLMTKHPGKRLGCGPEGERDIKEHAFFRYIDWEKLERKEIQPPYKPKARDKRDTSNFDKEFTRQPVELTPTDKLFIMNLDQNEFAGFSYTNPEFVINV
Description: as §1

[25] = target: T22, TLK1 (Homo sapiens, UniProt Q9UKI8); experiment: Kinase screening service: TLK1; assay type: biochemical; settings: average of duplicates
T22 construct: purchased Life Technologies Corporation (Kinase Screening Service)
Description: as §1

[26] = target: T23, TEC (Homo sapiens, UniProt P42680); experiment: Kinase screening service: TEC; assay type: biochemical; settings: average of duplicates
T23 construct: purchased Life Technologies Corporation (Kinase Screening Service)
Description: as §1

[27] = target: T24, NEK6 (Homo sapiens, UniProt Q9HC98); experiment: Kinase screening service: NEK6; assay type: biochemical; settings: average of duplicates
T24 construct: purchased Life Technologies Corporation (Kinase Screening Service)
T24 sequence (Q9HC98 whole entry): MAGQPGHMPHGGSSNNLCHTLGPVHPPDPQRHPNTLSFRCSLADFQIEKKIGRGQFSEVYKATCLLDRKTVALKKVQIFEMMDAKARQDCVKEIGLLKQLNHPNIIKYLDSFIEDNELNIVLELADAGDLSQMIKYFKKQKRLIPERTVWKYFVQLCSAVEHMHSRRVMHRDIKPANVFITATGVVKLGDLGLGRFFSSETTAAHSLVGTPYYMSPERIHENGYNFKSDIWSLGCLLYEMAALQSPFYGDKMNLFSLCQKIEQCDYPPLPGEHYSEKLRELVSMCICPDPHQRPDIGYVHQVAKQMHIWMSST
Description: as §1

[28] = target: T25, MAP3K9 (MLK1) (Homo sapiens, UniProt P80192); experiment: Kinase screening service: MAP3K9; assay type: biochemical; settings: average of duplicates
T25 construct: purchased Life Technologies Corporation (Kinase Screening Service)
Description: as §1

[29] = target: T26, MAPK8 (JNK1) (Homo sapiens, UniProt P45983); experiment: Kinase screening service (Life Technologies): JNK1; assay type: biochemical
T26 construct: purchased Life Technologies Corporation (kinase screening service)
T26 sequence (P45983 whole entry): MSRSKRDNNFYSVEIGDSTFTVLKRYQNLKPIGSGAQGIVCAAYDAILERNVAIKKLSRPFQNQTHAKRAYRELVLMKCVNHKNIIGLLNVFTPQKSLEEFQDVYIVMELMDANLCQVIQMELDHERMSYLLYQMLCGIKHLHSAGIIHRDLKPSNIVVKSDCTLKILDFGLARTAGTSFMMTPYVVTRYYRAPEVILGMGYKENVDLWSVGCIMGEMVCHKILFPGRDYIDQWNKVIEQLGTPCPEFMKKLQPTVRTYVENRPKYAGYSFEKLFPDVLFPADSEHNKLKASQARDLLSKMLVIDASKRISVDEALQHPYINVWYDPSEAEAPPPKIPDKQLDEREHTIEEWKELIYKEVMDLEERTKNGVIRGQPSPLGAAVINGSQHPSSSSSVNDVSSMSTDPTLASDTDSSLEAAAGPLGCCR
Description: as §2, §1

T1 sequence (P41743 whole entry): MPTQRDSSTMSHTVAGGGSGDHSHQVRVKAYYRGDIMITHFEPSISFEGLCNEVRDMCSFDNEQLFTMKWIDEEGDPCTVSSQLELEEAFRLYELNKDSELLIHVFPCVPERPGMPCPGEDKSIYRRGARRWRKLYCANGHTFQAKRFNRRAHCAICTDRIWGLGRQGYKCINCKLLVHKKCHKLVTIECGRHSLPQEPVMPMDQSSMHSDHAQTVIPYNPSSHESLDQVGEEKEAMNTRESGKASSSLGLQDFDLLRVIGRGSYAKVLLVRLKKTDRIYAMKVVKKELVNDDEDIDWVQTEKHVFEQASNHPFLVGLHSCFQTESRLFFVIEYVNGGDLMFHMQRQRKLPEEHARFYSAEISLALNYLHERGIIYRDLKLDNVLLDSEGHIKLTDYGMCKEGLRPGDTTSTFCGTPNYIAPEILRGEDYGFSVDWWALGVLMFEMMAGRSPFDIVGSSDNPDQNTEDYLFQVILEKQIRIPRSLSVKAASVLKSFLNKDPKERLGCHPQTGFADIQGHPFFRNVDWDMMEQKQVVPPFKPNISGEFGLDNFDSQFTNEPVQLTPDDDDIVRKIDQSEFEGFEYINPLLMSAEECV

inhibition at 10 µM [1]: -14%
inhibition at 10 µM [2]: 5%
inhibition at 10 µM [3]: 10%
inhibition at 10 µM [4]: 3%
specificity for SGK1 [5]: better specificity for SGK1
inhibition at 10 µM [6]: 26%
inhibition at 10 µM [7]: 4%
Papp at 120 min, 0.1 mg/ml ([8]; PAMPA, PBL membrane, PBS pH=7.4, 120 min, room temperature, read-out: Pe): 11.93 ± 0.08 ×10⁻⁶ cm/s
inhibition at 10 µM [9]: 10%
inhibition at 10 µM [10]: -2%
inhibition at 10 µM [11]: 7%
inhibition at 10 µM [12]: 7%
inhibition at 10 µM [13]: 25%
inhibition at 10 µM [14]: 28%
inhibition at 10 µM [15]: 26%
specificity for SGK1 and JNK [16]: better specificity for SGK1 and JNK
inhibition at 10 µM [17]: 11%
inhibition at 10 µM [18]: 61%
inhibition at 10 µM [19]: -2%
inhibition at 10 µM [20]: 5%
inhibition at 10 µM [21]: -6%
inhibition at 10 µM [22]: 3%
inhibition at 10 µM [23]: 39%
inhibition at 10 µM [24]: -10%
inhibition at 10 µM [25]: 20%
inhibition at 10 µM [26]: 26%
inhibition at 10 µM [27]: 3%
inhibition at 10 µM [28]: 2%
IC50 [29]: 143 nM
inhibition at 10 µM ([29]; 10 μM, average of duplicates): 104%
SMILES: O=C(CCCCC1CCSS1)NC1CCC(Nc2cccc3cnccc23)CC1 (stereo not shown) [PT109, 5-(1,2-dithiolan-3-yl)-N-(4-(isoquinolin-5-ylamino)cyclohexyl) pentanamide]
Prediction ([8]; from Pe): CNS+ (If Pe×10^−6 cm s^−1 value is greater than 5.3, the compound is able to cross the blood-brain barrier)

— patent US10723724B2, “Compounds for treating degenerative diseases of central nervous system or brain tumor, and uses thereof” (SUN YAT-SEN UNIVERSITY, priority 2016, dated 2020)
